In patent publication EP4752152A1, “STEROID COMPOUND, AND PREPARATION METHOD THEREFOR AND USE THEREOF” (Cholesgen (Shanghai) Co.Ltd., priority 2023, dated 2025) one finds IC50 data, which are given here for eight molecules.

For one experiment, the system named is SREBP pathway. In words: SREBP luciferase reporter gene system (SRE-luciferase assay). It is filed as cell-based, human. The conditions noted are these: Homo sapiens, Huh-7/SRE-luc cells, sterol-deficient medium, 0.01-10 µM. The gist of the method: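 Readout was SRE-driven luciferase normalised to GFP fluorescence in lysates of stably transfected Huh-7/SRE-luc hepatoma cells. Compounds (0.01, 0.03, 0.1, 0.3, 1.0, 3.0, 10 µM; DMSO control) were applied for 16 h in sterol-depleted medium with 2 µM lovastatin and 10 µM mevalonate; IC50 from variable-slope fit.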

Experiment [1] concerns Fatty Acid Synthase (FASN) gene. In words: Inhibition of FASN gene expression (qPCR) in Huh-7 cells. The format is cell-based, human. To be noted: Homo sapiens, Huh-7 cells, starvation medium, 16 hours, qPCR, class symbols, read-out: FASN IC50. As for the experimental part: Huh-7 cells (purchased from ATCC) were cultured in DMEM medium (containing 10% fetal bovine serum LONSERA S711-001S) at 37°C in a 5% CO2 incubator. After 24 hours, the original medium was aspirated and replaced with DMEM starvation medium (containing 5% lipoprotein deficient serum (LPDS), 2 µM lovastatin, and 10 µM mevalonate). The control group was treated with dimethyl sulfoxide (DMSO), while the compound treatment groups were treated with different concentrations of compounds. The highest concentration of the compound was 3000 nM, with 3-fold dilutions, totaling 5 concentrations. The cells were cultured for 16 hours. Cell lysis was performed, followed by reverse transcription from cells to cDNA, and qPCR was performed to detect the expression of the SREBP target gene Fatty Acid Synthase (FASN) gene (FASN gene forward primer sequence: 5'-[…]-3', reverse primer sequence: 5'-[…]-3'). The IC50 was calculated. The test data for each test compound were analyzed using Prism software (with the DMSO-treated group as the reference to calculate the compound inhibition rate, fitted using the Prism log(inhibitor) vs. responseVariable slope (four-parameter) model, calculation formula: Y = Bottom + (Top - Bottom)/(1 + 10^((LogIC50 - X) × HillSlope))), to obtain the IC50 parameters of the compounds. Table 4: Inhibition results of FASN gene expression by compounds from some examples

Where two headings read alike, the source gives them in different places. Where only a bound is given, the exact number is not on record here.

As to `COc1cccc(F)c1C(O)CCC[C@@H](C)[C@H]1CC[C@H]2[C@H]3[C@H](CC[C@]12C)[C@@]1(C)CC[C@H](O)C[C@@H]1CC3(F)F` (stereo partly drawn) [Compound 302, (1R,3aS,3bR,5aR,7S,9aS,9bS,11aR)-4,4-difluoro-1-[(2R)-6-(2-fluoro-6-methoxyphenyl)-6-hydroxyhexan-2-yl]-9a,11a-dimethylhexadecahydro-1H-cyclopenta[1,2-a]phenanthren-7-ol], the IC50 was 0.085 µM with SREBP pathway (Huh-7, 16 h) and less than 200 nM in experiment [1] (Huh-7, 16 h).

In the case of `COc1ccc(C(O)CCC[C@@H](C)[C@H]2CC[C@H]3[C@H]4[C@H](CC[C@]23C)[C@@]2(C)CC[C@H](O)[C@H](O)[C@@H]2CC4(F)F)c(OC)n1` (stereo partly drawn) [Compound 177, (1R,3aS,3bS,5aR,6R,7 S,9aR,9bS,11aR)-1-[(2R)-6-(2,6-Dimethoxypyridin-3-yl)-6-hydroxyhexan-2-yl]-4,4-difluoro-9a,11a-dimethylhexadecahydro-1H-cyclopenta[1,2-a]phenanthrene-6,7-diol], the IC50 was 0.186 µM in the experiment on SREBP pathway (Huh-7, 16 h) and less than 200 nM in experiment [1] (Huh-7, 16 h).

As to `COc1nc(F)ccc1C(O)CCC[C@@H](C)[C@H]1CC[C@H]2C3=C(F)C[C@H]4[C@@H](O)[C@@H](O)CC[C@]4(C)[C@H]3CC[C@]12C` (stereo partly drawn) [Compound 107, (1R,3aR,5aR,6R,7S,9aR,9bR,11aR)-4-fluoro-1-[(2R)-6-(6-fluoro-2-methoxypyridin-3-yl)-6-hydroxyhexan-2-yl]-9a,11a-dimethyl-2,3,3a,5,5a,6,7,8,9,9a,9b,10,11,11a-tetradecahydro-1H-cyclopenta[1,2-a]phenanthrene-6,7-diol], the IC50 in the experiment on SREBP pathway (Huh-7, 16 h) was 0.0777 µM; in experiment [1] (Huh-7, 16 h), 200 to 500 nM.

As for `C[C@H](CCCC(O)c1ccc(F)nc1OC1CC1)[C@H]1CC[C@H]2[C@H]3[C@H](CC[C@]12C)[C@@]1(C)CC[C@H](O)C[C@@H]1CC3(F)F` (stereo partly shown) [Compound 335], the IC50 in the experiment with SREBP pathway (16 hours) was 0.045 µM; in experiment [1], less than 200 nM.

In the case of `COc1nc(F)ccc1C(O)CCC[C@@H](C)[C@H]1CC[C@H]2[C@H]3[C@H](CC[C@]12C)[C@@]1(C)CC[C@H](O)C[C@@H]1CC3(F)F` (stereo partly drawn) [Compound 301, (1R,3aS,3bR,5aR,7S,9aS,9bS,11aR)-4,4-difluoro-1-[(2R)-6-(6-fluoro-2-methoxypyridin-3-yl)-6-hydroxyhexan-2-yl]-9a,11a-dimethylhexadecahydro-1H-cyclopenta[1,2-a]phenanthren-7-ol], the IC50 was 0.076 µM in the experiment with SREBP pathway (Huh-7, 16 h) and 200 to 500 nM in experiment [1] (Huh-7, 16 h).

Turning to `COc1cc(F)c([C@H](O)CCC[C@@H](C)[C@H]2CC[C@H]3[C@H]4[C@H](CC[C@]23C)[C@@]2(C)CC[C@H](O)[C@H](O)[C@@H]2CC4(F)F)c(F)c1Br` (single isomer, unassigned) [Compound 199], the IC50 in the experiment with SREBP pathway (Huh-7, 16 h) is 0.152 µM; in experiment [1] (Huh-7, 16 h) it was 200 to 500 nM.

On to `COc1cccc(F)c1C(O)CC[C@@H](C)[C@H]1CC[C@H]2[C@H]3[C@H](CC[C@]12C)[C@@]1(C)CC[C@H](O)[C@H](O)[C@@H]1CC3(F)F` (single isomer, unassigned) [Compound 336], for which the IC50 in the experiment with SREBP pathway (Huh-7, 16 h) was 0.31 µM; in experiment [1] (Huh-7, 16 h), less than 200 nM.

Regarding `COc1cc(F)cc(F)c1C(O)CCC[C@@H](C)[C@H]1CC[C@H]2[C@H]3[C@H](CC[C@]12C)[C@@]1(C)CC[C@H](O)[C@H](O)[C@@H]1CC3(F)F` (single isomer, unassigned) [Compound 200, (1R,3aS,3bS,5aR,6R,7S,9aR,9bS,11aR)-1-[(2R,6S)-6-(4,6-difluoro-2-methoxyphenyl)-6-hydroxyhexan-2-yl]-4,4-difluoro-9a,11a-dimethylhexadecahydro-1H-cyclopenta[1,2-a]phenanthrene-6,7-diol or (1R,3aS,3bS,5aR,6R,7S,9aR,9bS,11aR)-1-[(2R,6R)-6-(4,6-difluoro-2-methoxyphenyl)-6-hydroxyhexan-2-yl]-4,4-difluoro-9a, 11a-dimethylhexadecahydro-1H-cyclopenta[1,2-a]phenanthrene-6,7-diol], the IC50 in the experiment with SREBP pathway (Huh-7, 16 h) was 0.053 µM; in experiment [1] (Huh-7, 16 h) it was less than 200 nM.
